According to ChEMBL document CHEMBL1128843, “Protein kinase C- inhibitors; structure-activity relationships in bis-indole series” (Bioorg Med Chem Lett, 1995):

Target: Protein kinase C alpha type (Homo sapiens, UniProt P17252)
Test: Inhibition of Protein kinase C alpha

SMILES | IC50 [nM]
COC(=O)c1cc(NC(=O)c2cc(C(=O)c3cc(NC(=O)Cn4cc(C5=C(c6c[nH]c7ccccc67)C(=O)NC5=O)c5ccccc54)cn3C)cn2C)cn1C | 170
COC(=O)c1cc(NC(=O)Cn2cc(C3=C(c4c[nH]c5ccccc45)C(=O)NC3=O)c3ccccc32)cn1C | 500
CN(C)CCCn1cc(C2=C(c3c[nH]c4ccccc34)C(=O)NC2=O)c2ccccc21 [GF-109203] | 10

Continued, values first:

IC50 [nM] | SMILES
460 | CN(C)CCCNC(=O)c1cc(NC(=O)c2cc(NC(=O)c3cc(NC(=O)Cn4cc(C5=C(c6c[nH]c7ccccc67)C(=O)NC5=O)c5ccccc54)cn3C)cn2C)cn1C
280 | COC(=O)c1cc(NC(=O)c2cc(NC(=O)Cn3cc(C4=C(c5c[nH]c6ccccc56)C(=O)NC4=O)c4ccccc43)cn2C)cn1C
630 | CN(C)CCCNC(=O)c1cc(NC(=O)c2cc(NC(=O)Cn3cc(C4=C(c5c[nH]c6ccccc56)C(=O)NC4=O)c4ccccc43)cn2C)cn1C
1000 | CN(C)CCCNC(=O)c1cc(NC(=O)Cn2cc(C3=C(c4c[nH]c5ccccc45)C(=O)NC3=O)c3ccccc32)cn1C
